In patent publication US5747463A, “Malonate derivatives of glycolipids as cell adhesion inhibitors” (Bristol-Myers Squibb Company, priority 1996, dated 1998):
pIC50: −log10 of the molar value.

Columns and labels:
rats = assay: Reverse Passive Arthus Reaction in Rats (RPA); assay type: in vivo, male Sprague Dawley rats; design: key to RPA VP % Inhib. (vascular permeability): NS: no significant inhibition at 3 mg; conditions: single dose of 3 mg IV, rat, 4 hours after BSA
Description: The reverse passive Arthus reaction in rats is a modification of the method by Mulligan et al., as described in J. Clin. Invest, (1991) 88: 1396-1406. This is an experimental model in which the interaction of antigen-antibodycomplexes and complement leads to a severe vasculitis that is associated with edema, induration, erythema and hemorrhage. The interaction between the antigen-antibody complexes and complement leads to a localized influx of neutrophils. These neutrophils release a variety of mediators that are associated with tissue damage and vascular permeability. The localized inflammatory reaction is measured using different techniques i.e., vascular permeability and neutrophil influx which is evaluated both biochemically and microscopically.
Male Sprague Dawley specific pathogen-free rats with jugular vein cannulae (280-320 g, Hill Top Labs, Pennsylvania) are used in these studies. Animals are acclimated for at least 1 day and individually housed in stainless steel cages. The dorsal region of the rats is closely clipped 2 days prior to the experiments and divided into 4 sites on each side of the midline. Prior to all injections the rats are sedated with 0.4 ml per 300 gm rat of ketamine/rompun [1000 mg (10 ml) of ketamine HCl is mixed with 40 mg (2.0 ml) Rompun] administered IP and or inhalation anesthesia with metafane (methoxyflurane).
Bovin Serum Albumin (BSA) and rabbit polyclonal IgG rich in anti-BSA are purchased from Sigma Chemical Co. (St. Louis, Mo.). Radiolabelled ^125 I-BSA (spAct 1-5 μCi/μg) is purchased from Dupont NEN (Boston, Mass.).
Each rat is administered intradermal (ID) injection of (0.4 mg, 0.6 mg and 0.8 mg) anti-BSA in a volume of 100 μl per injection in normal saline. The ID injections are randomized near the mid dorsal region on both sides of the back bone. Immediately after the ID injections of the anti-BSA, the rats are administered intravenous (IV) injections of BSA (10 mg in 1.0 ml) in normal saline containing ^125 I labeled BSA (1 μCi/ml BSA or 5.0 μCi/kg body/wt) for quantification of dermal valscular injury. Anti-inflammatory agents such as inhibitors of adhesion molecules of the present invention are administered IV at a single dose of 3 mg immediately after BSA. Four (4) hours after the IV injection of BSA, the rats are anesthetized with metafane and 2 to 3 ml of blood is withdrawn via the cannula into an anticoagulant containing (EDTA or Heparin) tube and plasma separated and saved for neutrophil and albumin quantitation. The rats are killed and the skin surrounding the injection site (15 mm diameter) is punched out and weighed. The skin sample and a fixed volume of plasma (0.1 to 1.0 ml) is analyzed in a gamma-counter for ^125 I content. Skin samples from the contralateral side are processed and analyzed for myeloperoxidase activity (MPO) as a measure of neutrophil accumulation. As needed, samples are also processed for histological evaluation of the reacted sites.
The calculation of the plasma protein exudation into skin is made by determining the radioactivity in the tissue and relating this to the level of radioactive albumin in the blood at the time of sacrifice. […] [formula]
Percent inhibition of the test compound at 3 mg was determined as follows: [formula] Myeloperoxidase (MPO)
MPO is located in the azurophil granules of polymorphonuclear leukocytes (PMN). Because of its abundance in these cells (5% dry weight), this enzyme is used as a marker for tissue neutrophil content. For tissue MPO content, the method of Bradley, et al., was used as described in J. Invest. Dermatol. (1982) 78: 206-209. Biopsies from each treatment group were placed in plastic tubes (15×100 mm) containing 10 ml of 0.5% hexadecyltrimethylammonium bromide (HTAB) in 0.05M potassium phosphate buffer pH 6.0. The tissue was then homogenized with a Brinkmann Polytron homogenizer (10s). […]

[1] = system: platelet: HL-60 cell adhesion; assay: HL-60 Platelet Cell Adhesion Assay; assay type: cell-based; conditions: 0.5 h; thrombin-activated human platelets: HL-60 5:1, 30 minutes at room temperature; read-out: P-selectin HL-60 Platelets IC50
Method: HL-60 cells, obtained from American Type Culture Collection, were cultured in RPMI 1640 medium (GIBCO) supplemented with 20% fetal calf serum (Sigma) and 50 μg/ml gentamicin (GIBCO). Cells in log phase growth were harvested, washed and resuspended in Tyrodes buffer containing 5 mM HEPES and 0.2% bovine serum albumin and were fixed with 1% buffered formalin.
Blood from normal human donors was anticoagulated with citrate, layered over 1-Step Platelets (Accurate Chemical Co.) and centrifuged at 350 g for 20 minutes at room temperature. The platelet band was collected, diluted in 2 volumes of Tyrode's Buffer with 5 mM HEPES, 10 mM EDTA, and 0.2% BSA (pH 7.4) (THEB) and centrifuged at 600 g for 10 minutes. The platelet pellet was resuspended in THEB and incubated at room temperature for 1 hour. Calcein-acetoxy methylester (Calcein-Am, Molecular Probes) was added to the platelets at a final concentration of 10 μM and incubated for 10 minutes at 37° C. to label the platelets. Without washing, the platelets were counted on a Coulter counter model ZM, and the concentration was adjusted to 1×10^7 /ml. The platelets were activated with 2 U/ml of human thrombin for 10 minutes in Tyrode's containing 2 mM CaCl2, 5 mM HEPES, and 0.2% BSA (pH 7.4) (THB) at 37° C. and immediately fixed with 1% buffered formalin for 1 to 2 hours at room temperature. A small aliquot of labeled platelets was removed before activation and designated as non-activated.
Both platelets and HL-60 were washed in a ≥25 fold excess volume of Hanks Balanced Salt Solution (HBSS), resuspended in THB and counted. Cell concentrations were adjusted to 2×10^7 /ml for platelets and 4×10^6 /ml for HL-60, this ratio determined to be optimum for platelet: HL-60 cell adhesion. Compounds were incubated with 50 μl of platelets for 30 minutes at room temperature before addition of 50 μl of HL-60. This ratio of 5:1 platelets to HL-60 was incubated for 30 minutes at room temperature before addition of 0.2 ml of THB to increase the volume so the samples could be analyzed on a FACScan cytometer (Becton Dickinson). Non-activated platelets, and activated platelets with 10 mM EDTA were included as controls. Data were collected within a region set for the forward scatter channel corresponding to HL-60 size events.
The percent HL-60 cells which contained bound platelets was determined for each test condition. The inhibition of binding was determined by comparison to standards which were treated with vehicle alone (representing 0% inhibition) and standards whose specific binding had been blocked by the use of EDTA (representing 100% inhibition), by the following formula: [formula] where x=HL-60 cells containing bound platelets in the presence of the compound;
b=HL-60 cells containing bound platelets in the presence of EDTA;
a=HL-60 cells containing bound platelets in the presence of compound vehicle;
z=% inhibition of platelet: HL-60 cell adhesion

P-selectin = target: T1, P-selectin (Homo sapiens, UniProt P16109); conditions: literature; cited from earlier work
T1 sequence (P16109 42-830): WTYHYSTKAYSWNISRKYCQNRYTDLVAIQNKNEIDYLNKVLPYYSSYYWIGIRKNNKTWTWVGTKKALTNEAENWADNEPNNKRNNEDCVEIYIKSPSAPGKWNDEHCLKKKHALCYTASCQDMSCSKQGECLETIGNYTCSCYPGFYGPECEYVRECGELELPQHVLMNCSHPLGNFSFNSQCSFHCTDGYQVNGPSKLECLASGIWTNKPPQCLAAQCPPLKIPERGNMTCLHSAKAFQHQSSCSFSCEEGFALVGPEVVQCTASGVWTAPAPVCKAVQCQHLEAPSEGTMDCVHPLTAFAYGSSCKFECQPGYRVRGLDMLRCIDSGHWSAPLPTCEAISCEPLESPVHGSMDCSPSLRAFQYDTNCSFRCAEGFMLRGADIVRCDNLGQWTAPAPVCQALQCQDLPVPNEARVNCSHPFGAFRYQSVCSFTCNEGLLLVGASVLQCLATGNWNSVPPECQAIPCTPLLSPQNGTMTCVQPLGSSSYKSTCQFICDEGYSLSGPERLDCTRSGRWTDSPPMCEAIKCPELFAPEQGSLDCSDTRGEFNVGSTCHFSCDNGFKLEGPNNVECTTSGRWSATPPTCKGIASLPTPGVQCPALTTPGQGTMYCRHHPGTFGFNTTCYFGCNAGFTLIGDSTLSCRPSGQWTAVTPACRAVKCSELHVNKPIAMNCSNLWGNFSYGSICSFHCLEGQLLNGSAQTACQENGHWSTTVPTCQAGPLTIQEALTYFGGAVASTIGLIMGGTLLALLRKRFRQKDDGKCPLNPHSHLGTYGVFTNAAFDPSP

Molecule | pIC50 [1] | RPA MPO % Inhib. (myeloperoxidase) (rats) [%] | RPA VP % Inhib. (vascular permeability) (rats; printed as symbol) | RPA VP % Inhib. (vascular permeability) (rats) [%] | inhibition of P-selectin mediated adhesion (P-selectin)
CCCCCCCCCCCCC/C=C/[C@@H](OC(=O)c1ccccc1)[C@H](CO[C@H]1O[C@H](COCCC(C(=O)O)C(=O)O)[C@H](O)[C@H](O)[C@H]1O)NC(=O)CCCCCCCCCCCCCCC [Example 6, (2S,3R,4E)-3-Benzoyloxy-2-hexadecanoylamino-1-[6-O-(3,3-di-carboxyprop-1-yl)-α-D-galactopyranosyloxy]-4-octadecene] | 4.89 | 25 | NS | – | –
CCCCCCCCCCCCC/C=C/[C@@H](OC(=O)c1ccccc1)[C@H](CO[C@H]1O[C@H](CO)[C@H](O)[C@H](OCCCCC(C(=O)O)C(=O)O)[C@H]1O)NC(=O)CCCCCCCCCCCCCCC [Example 12, (2S,3R,4E)-3-Benzoyloxy-2-hexadecanoylamino-1-[3-O-(5,5-di-carboxypent-1-yl)-α-D-galactopyranosyloxy]-4-octadecene] | 4.64 | 82 | – | 33 | –
dextran sulfate | – | – | – | – | inhibit P-selectin mediated adhesion
fucoidan | – | – | – | – | inhibit P-selectin mediated adhesion
heparin | – | – | – | – | inhibit P-selectin mediated adhesion

Second part, led by results:

pIC50 [1] | Molecule | RPA MPO % Inhib. (myeloperoxidase) (rats) [%] | RPA VP % Inhib. (vascular permeability) (rats; printed as symbol) | RPA VP % Inhib. (vascular permeability) (rats) [%] | inhibition of P-selectin mediated adhesion (P-selectin)
4.35 | CCCCCCCCCCCCC/C=C/[C@@H](OC(=O)c1ccccc1)[C@H](CO[C@@H]1O[C@H](CO)[C@H](O)[C@H](OCCCCC(C(=O)O)C(=O)O)[C@H]1O)NC(=O)CCCCCCCCCCCCCCC [Example 14, (2S,3R,4E)-3-Benzoyloxy-2-hexadecanoylamino-1-[3-O-(5,5-di-carboxypent-1-yl)-β-D-galactopyranosyloxy]-4-octadecene] | 30.9 | – | 15.5 | –
5.06 | CCCCCCCCCCCCC/C=C/[C@@H](OC(=O)c1ccccc1)[C@H](CO[C@@H]1O[C@H](CO)[C@H](O)[C@H](OC(=O)c2ccccc2)[C@H]1OCCCCC(C(=O)O)C(=O)O)NC(=O)CCCCCCCCCCCCCCC [Example 18, (2S,3R,4E)-3-Benzoyloxy-2-hexadecanoylamino-1-[2-O-(5,5-di-carboxypent-1-yl)-3-O-benzoyl-β-D-galactopyranosyloxy]-4-octadecene] | 61.6 | – | 4.3 | –
4.29 | CCCCCCCCCCCCC/C=C/[C@@H](OC(=O)c1ccccc1)[C@H](CO[C@H]1O[C@H](CO)[C@H](OCCC(C(=O)O)C(=O)O)[C@H](O)[C@H]1O)NC(=O)CCCCCCCCCCCCCCC [Example 24, (2S,3R,4E)-3-Benzoyloxy-2-hexadecanoylamino-1-[4-O-(3,3-di-carboxyprop-1-yl)-α-D-galactopyranosyloxy]-4-octadecene] | 35 | – | 33.5 | –
